Consider 4 molecules from patent publication US20230218577A1, “USE OF HEAT SHOCK PROTEIN INHIBITORS FOR THE TREATMENT OF NEURODEVELOPMENTAL DISORDERS” (The Children's Medical Center Corporation, priority 2020, published 2023).

This test concerns Hsp27, Hsp40, Hsp60, Hsp70, Hsp90 expression in Tsc2-sh neurons. Kind of test: Western blot of heat shock proteins in Tsc2-sh neurons. The class given is cell-based, rat. The settings on record: for down-regulating Hsp27 expression: increasing doses for four days DIV 9-13. The source says:
To investigate the mechanism and explore the pharmacological window by which 17-AGG increases ciliation in Tsc2-knockdown neurons, the heat shock response in these neurons was examined. The heat shock proteins (Hsps) are divided into six families based on their size, and these proteins function in multi-component complexes that are closely inter-related (Chatterjee and Burns, Targeting Heat Shock Proteins in Cancer: A Promising Therapeutic Approach; Int J Mol Sci 18 (2017)). In addition, while most of them are constitutively expressed, some are expressed only under stress (Garrido et al., Heat shock proteins 27 and 70: anti-apoptotic proteins with tumorigenic properties; Cell Cycle 5, 2592-2601 (2006)). Expression levels of Hsp90 and other HSP family members at DIV13 and DIV20 was assessed following four days of treatment with different concentrations of the Hsp90 inhibitor 17-AGG. In the absence of any compound, Tsc2-knockdown neurons had increased levels of the small heat shock protein 27 (Hsp27) with no change in Hsp90, Hsp70, Hsp60 and Hsp40 (FIGS. 5A-L). […] In addition, there was no change observed in Hsp27 expression due to treatment with 17-AGG in Tsc2 knockdown neurons at DIV20, consistent with the lack of effect on cilia at that age (FIGS. 5G-H, FIG. 10F). Inhibition of the Hsp90 pathway by 17-AGG was confirmed by induction of Hsp40 and Hsp70, consistent with the reported release of Hsp90-dependent inhibition on HSF1 (Zou et al., Repression of heat shock transcription factor HSF1 activation by HSP90 (HSP90 complex) that forms a stress-sensitive complex with HSF1; Cell 94, 471-480 (1998)) (FIGS. 5A, C, E, G, K). It was then evaluated whether Hsp27 upregulation was linked to mTORC1 hyper-activation. […] These findings indicate that Hsp27 contributes to the mTORC1-dependent mechanism implicated in defective ciliation under loss of neuronal TSC1/2 activity.
To test whether Hsp27 down-regulation may contribute to restoring ciliation in Tsc2-deficient neurons, Hsp27 was knocked-down by hspB1 gene silencing using lentiviral expression of RFP-tagged Hsp27shRNA (RFP-Hsp27sh) or scrambled shRNA as a control (RFP-C).
The effect of CUDC-305 and NPV-HSP-990 on Hsp27 expression was then tested.
Protein extracts were lysed in 1×SDS (22 mM Tris-HCl pH 6.8, 4% Glycerol, 0.8% SDS, 1.6% β-mercaptoethanol, bromphenol blue) sample buffer, heated to 95° C. for 5 min and stored frozen. Before being subjected to discontinuous gel electrophoresis, equal amounts of all protein lysates were verified by Coomassie gel staining. For immunoblotting, equal amounts of protein lysates were subjected to SDS-PAGE, transferred to Immobilon-P Millipore and incubated in LI-COR blocking solution at RT for 2 hrs. Primary and secondary antibodies were diluted in LI-COR blocking solution to the appropriate concentrations. LI-COR IRDye secondary antibodies were used. All images were acquired using the LI-COR Odyssey Classic imager and associated Image Studio Lite analysis software (version 5.2.5). Quantification of protein expression was performed by densitometry scans of immunoblots using LI-COR Odyssey imaging system.
Western blot quantifications were performed by protein normalization using GAPDH as loading control. Level of phosphorylated proteins was expressed as the ratio of phosphorylated/total level after GAPDH normalization. Low sample size datasets were tested for normality and when appropriate they were analyzed with non-parametric tests. IC50 values were calculated using the nonlinear regression equation “dose-response curves—Inhibition” of GraphPad PRISM. Data were expressed as percent of vehicle-treated Tsc2-sh neurons which were considered 100% and drug's concentrations were transformed to logarithmic 10 scale. EC50 values were calculated using the nonlinear regression equation “dose-response curves—Stimulation” of Prism. […]
Background: A western blot detects proteins with antibodies after separation by electrophoresis.

Where [1] appears, read: Tsc2-sh neurons, four-day dose curve.

Turning to `C=CCNC1=C2C[C@@H](C)C[C@H](OC)[C@H](O)[C@@H](C)/C=C(\C)[C@H](OC(N)=O)[C@@H](OC)C=C/C=C(\C)C(=O)NC(=CC1=O)C2=O` [17-AGG, 3 S,5S,6R,7S,8E,10R,11S,12E,14E)-21-(allylamino)-6-hydroxy-5,11-dimethoxy-3,7,9,15-tetramethyl-16,20,22-trioxo-17-azabicyclo[16.3.1]docosa-8,12,14,18,21-pentaen-10-yl] carbamate], under setting [1], the Hsp40 expression entry is “induction” and the Hsp70 expression entry is “induction”. For the same molecule, under “Tsc2 knockdown cultures at DIV13, four days of 17-AGG ranging from 5-450 nM”, the “aberrant Hsp27 expression” value is on record as “reduced”. The Hsp27 expression entry (Tsc2 knockdown neurons at DIV20, four days of treatment) is on record as “no change”. On to `CN(C)c1cc2c(cc1Sc1nc3c(N)nccc3n1CCNCC(C)(C)C)OCO2` [CUDC-305, 4-amino-2-[[6-(dimethylamino)-1,3-benzodioxol-5-yl]thio]-N-(2,2-dimethylpropyl)-1H-imidazo[4,5-c]pyridine-1-ethanamine], for which the “down-regulating Hsp27 expression” value (Tsc2-sh neurons) is on record as “Neither compound had a significant effect”. On the same count and under the same terms, the entry for `COc1cccc(-c2cc(F)ccc2[C@H]2Cc3nc(N)nc(C)c3C(=O)N2)n1` [NPV-HSP-990, (R)-2-amino-7-((R)-4-fluoro-2-(6-methoxypyridin-2-yl)phenyl)-4-methyl-7,8-dihydropyrido[4,3-d]pyrimidin-5(6H)-one] is “Neither compound had a significant effect”. Take `CO[C@H]1C[C@@H]2CC[C@@H](C)[C@@](O)(O2)C(=O)C(=O)N2CCCC[C@H]2C(=O)O[C@H]([C@H](C)C[C@@H]2CC[C@@H](O)[C@H](OC)C2)CC(=O)[C@H](C)/C=C(\C)[C@@H](O)[C@@H](OC)C(=O)[C@H](C)C[C@H](C)/C=C/C=C/C=C/1C` [rapamycin]: the Hsp27 upregulation result (Tsc2-sh neurons, 20 nM rapamycin between DIV9-13, measured at DIV13) is listed as “reduced”.
